Data as given in patent US4401660A, “Ester derivatives of 5-O-mycaminosyl tylonolide and method of using same” (Eli Lilly and Company, priority 1981, dated 1983).
Where two headings read alike, the source gives them in different places.

What was measured:
[1] = tested on: Streptococcus pneumoniae Park I; assay: MIC, standard agar-dilution assay (Table II); format: cell-based; set-up: unit not given here
Protocol: (§1) The MIC's in Table II were determined by standard agar-dilution assays. The MIC's in Table III were obtained using a conventional broth-dilution microtiter test.

[2] = tested on: Streptococcus Group D 9960; assay: MIC, standard agar-dilution assay (Table II); format: cell-based; set-up: unit not given here
Protocol: as §1

[3] = tested on: Staphylococcus epidermidis EPI2; assay: MIC, standard agar-dilution assay (Table II); format: cell-based; set-up: unit not given here
Protocol: as §1

[4] = tested on: Staphylococcus aureus X1.1; assay: MIC, standard agar-dilution assay (Table II); format: cell-based; set-up: unit not given here
Protocol: as §1

[5] = tested on: Haemophilus influenzae Holt; assay: MIC, standard agar-dilution assay (Table II); format: cell-based; set-up: unit not given here; conditions: ampicillin-sensitive strain
Protocol: as §1

[6] = tested on: Staphylococcus aureus X400; assay: MIC, standard agar-dilution assay (Table II); format: cell-based; set-up: unit not given here; conditions: Staphylococcus aureus X400, methicillin-resistant strain
Protocol: as §1

[7] = tested on: Haemophilus influenzae R252; assay: MIC, standard agar-dilution assay (Table II); format: cell-based; set-up: unit not given here; conditions: Haemophilus influenzae R252, ampicillin-resistant strain
Protocol: as §1

[8] = tested on: Streptococcus pyogenes C203; assay: MIC, standard agar-dilution assay (Table II); format: cell-based; set-up: unit not given here
Protocol: as §1

[9] = tested on: Staphylococcus aureus S13E; assay: MIC, standard agar-dilution assay (Table II); format: cell-based; set-up: unit not given here
Protocol: as §1

[10] = tested on: Staphylococcus epidermidis EPI1; assay: MIC, standard agar-dilution assay (Table II); format: cell-based; set-up: unit not given here
Protocol: as §1

[11] = tested on: Staphylococcus aureus V41; assay: MIC, standard agar-dilution assay (Table II); format: cell-based; set-up: unit not given here; conditions: Staphylococcus aureus V41, penicillin-resistant strain
Protocol: as §1

[12] = tested on: Streptococcus Group D X66; assay: MIC, standard agar-dilution assay (Table II); format: cell-based; set-up: unit not given here
Protocol: as §1

[13] = tested on: Pasteurella multocida 60A; assay: MIC, broth-dilution microtiter test (Table III); format: cell-based; set-up: unit not given here; conditions: avian isolate
Protocol: as §1

[14] = tested on: Pasteurella multocida 40G; assay: MIC, broth-dilution microtiter test (Table III); format: cell-based; set-up: unit not given here
Protocol: as §1

Mycoplasma hyorhinis = assay: MIC, broth-dilution microtiter test (Table III); format: cell-based; set-up: unit not given here
Protocol: as §1

[15] = tested on: Pasteurella multocida 17E; assay: MIC, broth-dilution microtiter test (Table III); format: cell-based; set-up: unit not given here; conditions: bovine isolate
Protocol: as §1

[16] = tested on: Pasteurella haemolytica 41D; assay: MIC, broth-dilution microtiter test (Table III); format: cell-based; set-up: unit not given here
Protocol: as §1

[17] = tested on: Pasteurella multocida 22A; assay: MIC, broth-dilution microtiter test (Table III); format: cell-based; set-up: unit not given here
Protocol: as §1

Staphylococcus aureus = assay: MIC, broth-dilution microtiter test (Table III); format: cell-based; set-up: unit not given here
Protocol: as §1

Mycoplasma gallisepticum = assay: MIC, broth-dilution microtiter test (Table III); format: cell-based; set-up: unit not given here
Protocol: as §1

Streptococcus sp. 80 = assay: MIC, broth-dilution microtiter test (Table III); format: cell-based; set-up: unit not given here
Protocol: as §1

[18] = tested on: Pasteurella multocida 68C; assay: MIC, broth-dilution microtiter test (Table III); format: cell-based; set-up: unit not given here
Protocol: as §1

[19] = tested on: Pasteurella haemolytica 23C; assay: MIC, broth-dilution microtiter test (Table III); format: cell-based; set-up: unit not given here
Protocol: as §1

[20] = tested on: Pasteurella haemolytica 22C; assay: MIC, broth-dilution microtiter test (Table III); format: cell-based; set-up: unit not given here
Protocol: as §1

Mycoplasma synoviae = assay: MIC, broth-dilution microtiter test (Table III); format: cell-based; set-up: unit not given here
Protocol: as §1

[21] = tested on: Streptococcus pyogenes C203; assay: ED50 in mice with experimental infections (Table IV); format: in vivo; conditions: Streptococcus pyogenes, doses given 1 and 4 hours postinfection
In short: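 Mice with experimental infections received test compound twice, at 1 and 4 h postinfection. ED50 is the dose in mg/kg (per administration, ×2) protecting 50% of animals.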

Pasteurella multocida = assay: Treatment of Pasteurella infections in chicks (Table V); format: in vivo, one-day-old chicks; conditions: Pasteurella multocida, sc, 4 h; 30 mg/kg by subcutaneous injection one and four hours post challenge; read-out: Deaths in Treated Chicks/Number Treated (converted)
In short: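 One-day-old chicks challenged subcutaneously with avian P. multocida (0.1 ml of 10^-3 dilution of 20-hour tryptose broth culture). Esters given at 30 mg/kg subcutaneously at 1 and 4 hours post challenge. Untreated infected controls, ten per group.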

[22] = C203, oral, read-out: ED50, Oral
[23] = C203, sc, subcutaneous, read-out: ED50, Subcutaneous

| Compound | minimal inhibitory concentration (MIC) [1] | minimal inhibitory concentration (MIC) [2] | minimal inhibitory concentration (MIC) [3] | minimal inhibitory concentration (MIC) [4] | minimal inhibitory concentration (MIC) [5] | minimal inhibitory concentration (MIC) [6] | minimal inhibitory concentration (MIC) [7] | minimal inhibitory concentration (MIC) [8] | minimal inhibitory concentration (MIC) [9] | minimal inhibitory concentration (MIC) [10] | minimal inhibitory concentration (MIC) [11] | minimal inhibitory concentration (MIC) [12] | minimal inhibitory concentration (MIC) [13] | minimal inhibitory concentration (MIC) [14] | minimal inhibitory concentration (MIC) (Mycoplasma hyorhinis) | minimal inhibitory concentration (MIC) [15] | minimal inhibitory concentration (MIC) [16] | minimal inhibitory concentration (MIC) [17] | minimal inhibitory concentration (MIC) (Staphylococcus aureus) | minimal inhibitory concentration (MIC) (Mycoplasma gallisepticum) | other results |
| --- | --- | --- | --- | --- | --- | --- | --- | --- | --- | --- | --- | --- | --- | --- | --- | --- | --- | --- | --- | --- | --- |
| CCC1OC(=O)CC(O)C(C)C(OC2OC(C)C(OC(C)=O)C(N(C)C)C2OC(C)=O)C(CC=O)CC(C)C(=O)C=CC(C)=CC1CO (stereo not drawn) [Compound 3, 2',4'-Di-O-acetyl-OMT] | 0.25 | 2 | 1 | 2 | 2 | 4 | 4 | 0.5 | 2 | 1 | 4 | 2 | 3.12 | 6.25 | 3.12 | 3.12 | 6.25 | 3.12 | 1.56 | 0.78 | minimal inhibitory concentration (MIC) (Streptococcus sp. 80): < 0.78; minimal inhibitory concentration (MIC) [18]: 1.56; minimal inhibitory concentration (MIC) [19]: 6.25; minimal inhibitory concentration (MIC) [20]: 12.5; minimal inhibitory concentration (MIC) (Mycoplasma synoviae): 0.195; ED50 [21, 22]: 139 mg/kg; ED50 [21, 23]: > 15 mg/kg; mortality at 30 mg/kg (Pasteurella multocida): 0% |
| CCC1OC(=O)CC(O)C(C)C(OC2OC(C)C(OC(C)=O)C(N(C)C)C2OC(C)=O)C(CC=O)CC(C)C(=O)C=CC(C)=CC1COC(C)=O (stereo not drawn) [Compound 7, 2',4',23-Tri-O-acetyl-OMT] | 0.125 | 1 | 0.5 | 0.5 | 2 | 1 | 8 | 0.5 | 1 | 0.5 | 1 | 1 | 3.12 | 1.56 | 3.12 | 3.12 | 6.25 | 3.12 | 0.78 | 0.39 | minimal inhibitory concentration (MIC) (Streptococcus sp. 80): 0.195; minimal inhibitory concentration (MIC) [18]: 1.56; minimal inhibitory concentration (MIC) [19]: 6.25; minimal inhibitory concentration (MIC) [20]: 6.25; minimal inhibitory concentration (MIC) (Mycoplasma synoviae): 0.39; ED50 [21, 22]: 100 mg/kg; ED50 [21, 23]: > 15 mg/kg; mortality at 30 mg/kg (Pasteurella multocida): 50% |
| CCC1OC(=O)CC(O)C(C)C(OC2OC(C)C(OC(C)=O)C(N(C)C)C2OC(C)=O)C(CC=O)CC(C)C(=O)C=CC(C)=CC1COC(=O)Cc1ccccc1 (stereo not drawn) [Compound 27, 2',4'-Di-O-acetyl-23-O-phenylacetyl-OMT] | 0.03 | 0.125 | 0.25 | 0.25 | 1 | 0.25 | 1 | 0.06 | 0.25 | 0.25 | 0.25 | 0.125 | 0.78 | 3.12 | 0.097 | 1.56 | 3.12 | 3.12 | 0.097 | 0.05 | minimal inhibitory concentration (MIC) (Streptococcus sp. 80): 0.05; minimal inhibitory concentration (MIC) [18]: 1.56; minimal inhibitory concentration (MIC) [19]: 3.12; minimal inhibitory concentration (MIC) [20]: 3.12; minimal inhibitory concentration (MIC) (Mycoplasma synoviae): 0.05; ED50 [21, 22]: 159 mg/kg; ED50 [21, 23]: > 30 mg/kg; mortality at 30 mg/kg (Pasteurella multocida): 90% |
